Laboratory results taken from patent US12390437B2, “Itaconic acid derivatives and uses thereof intreating an inflammatory disease or a disease associated with an undesirable immune response” (Sitryx Therapeutics Limited, priority 2019, dated 2025).

test system: IL-1β cytokine output from THP-1s; assay: THP-1 AlphaLISA IL-1β cytokine assay; type: cell-based, human; details: Homo sapiens, THP-1, PMA-differentiated THP-1 cells, LPS 24 hr then Nigericin 1 hour; read-out: IL-1β (IC50)
Method in brief: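 AlphaLISA read-out of cytokine released into supernatants of differentiated THP-1 cells. Cells were PMA-treated for 72 h, exposed to compound for 30 min, stimulated with LPS for 24 h, then given nigericin for 1 h before harvest. IC50 values come from normalised concentration-response curves.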

IC50 | Compound
3.9 µM | C=C(CC(=O)OC1CCCCCCC1)C(=O)OC1CS(=O)(=O)C1 [Example 54, 4-cyclooctyl 1-(1,1-dioxidothietan-3-yl) 2-methylenesuccinate]
22.6 µM | C=C(CC(=O)OCCCCCC)C(=O)OCCC(=O)O [Example 85, 3-((4-(hexyloxy)-2-methylene-4-oxobutanoyl)oxy)propanoic acid]
75.3 µM | C=C(CC(=O)OCC(C)(C)C)C(=O)OCC(=O)O [Example 92, 2-((2-methylene-4-(neopentyloxy)-4-oxobutanoyl)oxy)acetic acid]

Second part, the compound before the results:

Compound | IC50
C=C(CC(=O)OCCCCCCCC)C(=O)OC1CN(C(C)=O)C1 [Example 50, 1-(1-acetylazetidin-3-yl) 4-octyl 2-methylenesuccinate] | 2.7 µM
C=C(CC(=O)OC1CCCCCCC1)C(=O)OC1CCN(S(C)(=O)=O)CC1 [Example 69, 4-cyclooctyl 1-(1-(methylsulfonyl)piperidin-4-yl) 2-methylenesuccinate] | 1.7 µM
C=C(CC(=O)OCc1ccc(F)cc1)C(=O)OCCC(=O)O [Example 81, 3-((4-((4-fluorobenzyl)oxy)-2-methylene-4-oxobutanoyl)oxy)propanoic acid] | 100 µM

test system: IL-6 cytokine output from THP-1s; assay: THP-1 AlphaLISA IL-6 cytokine assay; type: cell-based, human; details: Homo sapiens; PMA-differentiated THP-1 cells, LPS 24 hr then Nigericin 1 hour
Experimental: Measuring Inhibitory Effects on IL-1β and IL-6 Cytokine Output from THP-1s
The cytokine inhibition profiles of compounds of formula (IW-1) were determined in a differentiated THP-1 cell assay. All assays were performed in RPMI-1640 growth medium (Gibco), supplemented with 10% fetal bovine serum (FBS; Gibco), 1% penicillin-streptomycin and 1% sodium pyruvate unless specified otherwise. The IL-1β and IL-6 cytokine inhibition assays were each run in a background of differentiated THP-1 cells as described below. All reagents described were from Sigma-Aldrich unless specified otherwise. Compounds were prepared as 10 mM DMSO stocks.
THP-1 cells were expanded as a suspension up to 80% confluence in appropriate growth medium. Cells were harvested, suspended, and treated with an appropriate concentration of phorbol 12-myristate 13-acetate (PMA) over a 72 hr period (37° C./5% CO2).
Following 72 hrs of THP-1 cell incubation, cellular medium was removed and replaced with fresh growth media containing 1% of FBS. Working concentrations of compounds were prepared separately in 10% FBS treated growth medium and pre-incubated with the cells for 30 minutes (37° C./5% CO2). Following the 30 minute compound pre-incubation, THP-1s were treated with an appropriate concentration of LPS and the THP-1s were subsequently incubated for a 24 hr period (37° C./5% CO2). An appropriate final concentration of Nigericin was then dispensed into the THP-1 plates and incubated for 1 hour (37° C./5% CO2) before THP-1 supernatants were harvested and collected in separate polypropylene 96-well holding plates.
Reagents from each of the IL-1β and IL-6 commercial kits (Perkin Elmer) were prepared and run according to the manufacturer's instructions. Subsequently, fluorescence signal detection in a microplate reader was measured (EnVision® Multilabel Reader, Perkin Elmer).
Percentage inhibition was calculated per cytokine by normalising the sample data to the high and low controls used within each plate (+/−LPS respectively). Percentage inhibition was then plotted against compound concentration and the 50% inhibitory concentration (IC50) was determined from the resultant concentration-response curve.

IC50 | Compound
1.5 µM | C=C(CC(=O)OC1CCCCCCC1)C(=O)OC1CS(=O)(=O)C1 [Example 54, 4-cyclooctyl 1-(1,1-dioxidothietan-3-yl) 2-methylenesuccinate]
18.6 µM | C=C(CC(=O)OCCCCCC)C(=O)OCCC(=O)O [Example 85, 3-((4-(hexyloxy)-2-methylene-4-oxobutanoyl)oxy)propanoic acid]
21.2 µM | C=C(CC(=O)OCC(C)(C)C)C(=O)OCC(=O)O [Example 92, 2-((2-methylene-4-(neopentyloxy)-4-oxobutanoyl)oxy)acetic acid]

Further lines, the compound ahead of its results:

Compound | IC50
C=C(CC(=O)OCCCCCCCC)C(=O)OC1CN(C(C)=O)C1 [Example 50, 1-(1-acetylazetidin-3-yl) 4-octyl 2-methylenesuccinate] | 1.7 µM
C=C(CC(=O)OC1CCCCCCC1)C(=O)OC1CCN(S(C)(=O)=O)CC1 [Example 69, 4-cyclooctyl 1-(1-(methylsulfonyl)piperidin-4-yl) 2-methylenesuccinate] | 2.2 µM
C=C(CC(=O)OCc1ccc(F)cc1)C(=O)OCCC(=O)O [Example 81, 3-((4-((4-fluorobenzyl)oxy)-2-methylene-4-oxobutanoyl)oxy)propanoic acid] | 52.1 µM

test system: NRF2; assay: NRF2 +/-GSH activation assay (DiscoverX PathHunter NRF2 translocation kit, U2OS cells); type: cell-based; details: Homo sapiens, U2OS; normalised to dimethyl fumarate 'High' control; GSH condition not stated in Table 5; read-out: NRF2 activation Emax
Experimental: Measuring Compound Activation Effects on the Anti-Inflammatory Transcription Factor NRF2 in DiscoverX PathHunter NRF2 Translocation Kit
Potency and efficacy of compounds of formula (IW-1) against the target of interest to activate NRF2 (nuclear factor erythroid 2-related factor 2) were determined using the PathHunter NRF2 translocation kit (DiscoverX). The NRF2 translocation assay was run using an engineered recombinant cell line, utilising enzyme fragment complementation to determine activation of the Keap1-NRF2 protein complex and subsequent translocation of NRF2 into the nucleus. Enzyme activity was quantified using a chemiluminescent substrate consumed following the formation of a functional enzyme upon PK-tagged NRF2 translocation into the nucleus.
The assay was run under either +/−GSH (glutathione) conditions to determine the attenuating activities of GSH against target compounds.
Additionally, a defined concentration of dimethyl fumarate was used as the ‘High’ control to normalise test compound activation responses to.
U2OS PathHunter eXpress cells were thawed from frozen prior to plating. Following plating, U2OS cells were incubated for 24 hrs (37° C./5% CO2) in commercial kit provided cell medium.
Following 24 hrs of U2OS incubation, cells were directly treated with an appropriate final concentration of compound, for −GSH conditions, or for +GSH conditions, an intermediate plate containing 6× working concentrations of compound stocks was prepared in a 6 mM working concentration of GSH solution (solubilised in sterile PBS). Following a 30 minute compound-GSH pre-incubation (37° C./5% CO2) for +GSH treatment, plated U2OS cells were incubated with an appropriate final concentration of compound and GSH.
Following compound (+/−GSH) treatment, the U2OS plates were incubated for a further 6 hours (37° C./5% CO2) before detection reagent from the PathHunter NRF2 commercial kit was prepared and added to test plates according to the manufacturer's instructions. Subsequently, the luminescence signal detection in a microplate reader was measured (PHERAstar®, BMG Labtech).
Percentage activation was calculated by normalising the sample data to the high and low controls used within each plate (+/−DMF). Percentage activation/response was then plotted against compound concentration and the 50% activation concentration (EC50) was determined from the plotted concentration-response curve.

Compound | Emax
C=C(CC(=O)OCCCCCCCC)C(=O)OC1CN(C(C)=O)C1 [Example 50, 1-(1-acetylazetidin-3-yl) 4-octyl 2-methylenesuccinate] | 225%
C=C(CC(=O)OC1CCCCCCC1)C(=O)OC1CS(=O)(=O)C1 [Example 54, 4-cyclooctyl 1-(1,1-dioxidothietan-3-yl) 2-methylenesuccinate] | 105%
C=C(CC(=O)OC1CCCCCCC1)C(=O)OC1CCN(S(C)(=O)=O)CC1 [Example 69, 4-cyclooctyl 1-(1-(methylsulfonyl)piperidin-4-yl) 2-methylenesuccinate] | 111%
C=C(CC(=O)OCc1ccc(F)cc1)C(=O)OCCC(=O)O [Example 81, 3-((4-((4-fluorobenzyl)oxy)-2-methylene-4-oxobutanoyl)oxy)propanoic acid] | 110%
C=C(CC(=O)OCCCCCC)C(=O)OCCC(=O)O [Example 85, 3-((4-(hexyloxy)-2-methylene-4-oxobutanoyl)oxy)propanoic acid] | 163%
C=C(CC(=O)OCC(C)(C)C)C(=O)OCC(=O)O [Example 92, 2-((2-methylene-4-(neopentyloxy)-4-oxobutanoyl)oxy)acetic acid] | 109%

same assay, conditions: Homo sapiens; U2OS PathHunter cells, 6 hours; GSH condition not stated in Table 5; read-out: NRF2 activation EC50

EC50 | Compound
2.8 µM | C=C(CC(=O)OC1CCCCCCC1)C(=O)OC1CS(=O)(=O)C1 [Example 54, 4-cyclooctyl 1-(1,1-dioxidothietan-3-yl) 2-methylenesuccinate]
25 µM | C=C(CC(=O)OCCCCCC)C(=O)OCCC(=O)O [Example 85, 3-((4-(hexyloxy)-2-methylene-4-oxobutanoyl)oxy)propanoic acid]
37.8 µM | C=C(CC(=O)OCC(C)(C)C)C(=O)OCC(=O)O [Example 92, 2-((2-methylene-4-(neopentyloxy)-4-oxobutanoyl)oxy)acetic acid]

Second part, the compound before the results:

Compound | EC50
C=C(CC(=O)OCCCCCCCC)C(=O)OC1CN(C(C)=O)C1 [Example 50, 1-(1-acetylazetidin-3-yl) 4-octyl 2-methylenesuccinate] | 3.2 µM
C=C(CC(=O)OC1CCCCCCC1)C(=O)OC1CCN(S(C)(=O)=O)CC1 [Example 69, 4-cyclooctyl 1-(1-(methylsulfonyl)piperidin-4-yl) 2-methylenesuccinate] | 14.7 µM
C=C(CC(=O)OCc1ccc(F)cc1)C(=O)OCCC(=O)O [Example 81, 3-((4-((4-fluorobenzyl)oxy)-2-methylene-4-oxobutanoyl)oxy)propanoic acid] | 24.9 µM
